Here are results for one compound from article PMC9114338 (Scientific Reports, 2022).

SMILES strings stand for the structures. Where two headings read alike, the source gives them in different places.

Data set [1] is classed as in vivo, C57BL/6 J mice. The conditions noted are these: Day 28, pathologist evaluation, low and high doses.
Protocol: Toxicity was evaluated by clinical observations, cage-side observations (twice daily), and body weight (weekly). Formaldehyde-fixed dermal tissue specimens (one per animal) were paraffin-embedded, sectioned, and H&E stained using established methods (JIT Labs, jit-labs.com). The slides were evaluated for microscopic findings by a certified pathologist (Vet Path Services, Inc., Mason, OH). Histopathology grades were assigned as grade 1 (minimal), grade 2 (mild), grade 3 (moderate), grade 4 (marked), or grade 5 (severe) based on an increasing extent of overall change.
Data set [2] deals with OAT3. The conditions noted are these: in vitro studies; cited from earlier work.
The test system of data set [3] is OAT1. The conditions noted are these: in vitro studies; cited from earlier work.
The conditions of data set [4]: rapidly converts to TFV; cited from earlier work.
The test system of data set [5] is HIV-1. The protocol:
The BLT hu-mouse model has been used extensively in efficacy studies involving HIV-1 prevention research[54]–[58]. […] The mice were challenged with HIV-1 either rectally or vaginally 6 h post dosing and monitored for infection status for 12 weeks.
The generation of BLT hu-mice was performed as described in Baum et al.[58], and the references contained therein.
Vaginal or rectal challenge with HIV-1 was performed 6 h after dosing and HIV-1 infection status was monitored by quantifying viral RNA concentration in peripheral blood (plasma) at 1, 2, 3, 6, and 12 weeks post challenge as fully described in Baum et al.[58], and the references contained therein.

For data set [6] the following is noted: cited from earlier work.
The nature of data set [7]: MALDI imaging mass spectrometry of dermal tissues adjacent to the implant. The format is in vivo, C57BL/6 J mice. Here is the method:
The used implants, the surrounding capsule, and the encasing dermal tissue were removed as a block in accordance with ISO 10993-6 guidelines, processed and stored, as described elsewhere. Briefly, the capsule was cut longitudinally and rolled open, taking care not to disrupt the architecture of the tissue or to damage the used implant. A portion of the tissue specimen was placed into 4% paraformaldehyde solution (phosphate-buffered at pH 7.2), and stored at 4 °C, for histopathology and two other portions were flash-frozen in liquid nitrogen for drug concentration analysis as well as for drug spatial distribution analysis by MALDI-IMS (vide infra).
Frozen mouse tissue specimens were shipped to Vanderbilt University on dry ice and stored at − 80 °C prior to use. Tissues were removed from the − 80 °C freezer and placed in a − 20 °C cryostat (CM 1900, Leica Biosystems, Buffalo Grove, IL) and sectioned. Tissue samples that had been prepared via removal of the used implant were affixed to the cryostat chuck with optimal cutting temperature (OCT) polymer and were cut on the cryostat into 12 µm thick sections for imaging mass spectrometry and H&E staining.
Tissue samples that still contained the implant in place were embedded in OCT prior to sectioning. In order to minimize the artifactual signal from the TAF powder after sectioning (the act of the cryostat blade cutting through an intact implant distributed residual TAF powder that still remained in the used implant onto the surrounding tissue section), house vacuum was used to remove visible TAF powder, followed by lightly running nitrogen gas over the plate to remove any additional loose powder from the slide.
The tissue sections were thaw-mounted onto indium-tin oxide coated glass slides for imaging (Delta Technologies, Ltd, Loveland, CO). The tissue sections were left to dry for at least 15 min in a desktop vacuum desiccator prior to matrix application. […] For 9AA, four passes were applied at 85 °C in a crisscross pattern, with a 700 mm min^-1 stage velocity, 2 mm track spacing, and 0.15 mL min^-1 flow rate. For DHB the same method was used, except eight passes were applied and the stage velocity was 1300 mm min^-1.
Flash-frozen dermal tissue samples collected adjacent to the TAF implants and sectioned were analyzed with a linear ion trap mass spectrometer equipped with a MALDI source and a nitrogen laser (LTQ XL, Thermo Scientific, Waltham, MA). The structures of compounds of interest are shown in Scheme 1. Targeted MS/MS methods were optimized for each compound using authentic samples as standards, with the final parameters shown in Appendix A under Supplementary Information. Pseudo-selected reaction monitoring mode was used for imaging by isolating precursor ions with a 1 Da window, fragmenting them, and acquiring full product ion mass spectra at each pixel. TFV, TFV-MP, and TFV-DP were analyzed in negative ion mode, while TAF, Metabolite X, and Metabolite Y were analyzed in positive ion mode. In most cases, after imaging, the matrix was removed and the tissue section that had been imaged was H&E stained for better image registration with tissue morphology. Standard images were acquired at either 50 or 100 µm spatial resolution. Reconstructed ion images were generated in ImageQuest software (Thermo Scientific, Waltham, MA) by plotting the intensity of the diagnostic fragment ion or ions as a function of location across the tissue surface.

The nature of data set [8]: Simulation of plasma TFV and PBMC TFV-DP following TAF delivery from implants. Also noted: species or system C57BL/6 J mice. The conditions noted are these: dose-dependent. Here is the method:
All other parameters were unmodified from Table 2. Our starting hypothesis was that the difference between SQ injection and long-acting SQ delivery via implant would be strictly related to the implant release rate. Once the drug was released from the device, it was hypothesized to be transferred from the SQ pocket to body circulation via the same mechanism and governed by the same parameters as by SQ injection, and therefore the same model was employed.
Compartmental analyses were performed in Phoenix software (version 8.3, Certara, Princeton, NJ) using a published, simple, structural PK model describing the TFV kinetics. IV and SQ data were modeled simultaneously. Due to the destructive nature of the blood sampling, data were modeled using a naïve-pooled algorithm, without inter-animal variability. The resulting systemic parameters, along with the implant in vivo release rates on a per animal basis, were used to co-model (predict) concentration data in mice following during implant dosing.

[9] abbreviates: oral TAF 6 h before rectal HIV-1 challenge.
Where [10] appears, read: oral TAF 6 h before vaginal HIV-1 challenge.

For `CC(C)OC(=O)[C@H](C)N[P@](=O)(CO[C@H](C)Cn1cnc2c(N)ncnc21)Oc1ccccc1` [TAF, tenofovir alafenamide], for the setting “HPLC of retrieved implants”, the “Impurities formed during in vivo implant use” value is recorded as “less than 1%”. Also, the “TAF peak area of total peak area (TAF and decomposition products) in retrieved implants” value (HPLC, irrespective of the implant group) is listed as > 98%. For the same compound, in data set [1], the “Effect of TAF dose on microscopic appearance of tissues” value is “no effects”. For the same compound, in data set [2], the “Substrate for renal uptake transporter OAT3” value is listed as “not believed to be a substrate”. Besides, the “Substrate for renal uptake transporter OAT1” value in [3] is “not believed to be a substrate”. Further, in data set [4], the “Stability in mouse plasma” value was “highly unstable”. For the same compound, in data set [5] (oral TAF), the “Protection from rectal HIV-1 acquisition” value is on record as “fully protective” and the “Protection from vaginal HIV-1 acquisition” value is “fully protective”. In data set [5] (setting [9]), this compound came in with an ED50 of 1.27 µmol and an ED90 of 1.62 µmol. In data set [5] (setting [10]), this compound came in with an ED50 of 1.17 µmol and an ED90 of 2.15 µmol. Besides, in [5] (rectal), the “m-value ± SEM (median-effect model)” value came to 9.18 ± 1.94. Moreover, the “m-value ± SEM (median-effect model)” value in data set [5] (vaginal) was 3.60 ± 0.22. Further, in [6], the “Efflux transport in the intestine” value is “vulnerable to efflux transport”. For the same compound, the “Detection by MALDI-IMS in dermal tissue samples during implant TAF delivery” value in [7] (all medicated specimens) is on record as “detected”. Moreover, the “Spatial distribution in dermal tissue sections (MALDI-IMS)” value in [7] (high-releasing (0.58 mg d^-1) implants, D3–D28) is given as “localized close to the implant”. Also, the “MALDI-IMS signal and localization with implant in situ” value in data set [7] (low-releasing (0.23 mg d^-1) implants, Day 14, 100 µm resolution) is listed as “most abundant signals”. Besides, the “Exposure scaling (apparent bioavailability) from subdermal implants vs SQ or IV injection” value in [8] was 4–5 ×.
